According to patent US20260138961A1, “MODULATORS OF MITOCHONDRIAL DNA REPLICATION” (Pretzel Therapeutics, Inc., priority 2022, published 2026):

target: T1, POLγ W748S + E1143G (Homo sapiens, UniProt P54098, E1143G/W748S); test: DNA polymerization assay, W748S + E1143G mutant; type: biochemical; details: stimulation of polymerase activity, primed M13mp18 ssDNA, 37° C. 2 hours
T1 sequence (P54098 1-1239 W748S/E1143G): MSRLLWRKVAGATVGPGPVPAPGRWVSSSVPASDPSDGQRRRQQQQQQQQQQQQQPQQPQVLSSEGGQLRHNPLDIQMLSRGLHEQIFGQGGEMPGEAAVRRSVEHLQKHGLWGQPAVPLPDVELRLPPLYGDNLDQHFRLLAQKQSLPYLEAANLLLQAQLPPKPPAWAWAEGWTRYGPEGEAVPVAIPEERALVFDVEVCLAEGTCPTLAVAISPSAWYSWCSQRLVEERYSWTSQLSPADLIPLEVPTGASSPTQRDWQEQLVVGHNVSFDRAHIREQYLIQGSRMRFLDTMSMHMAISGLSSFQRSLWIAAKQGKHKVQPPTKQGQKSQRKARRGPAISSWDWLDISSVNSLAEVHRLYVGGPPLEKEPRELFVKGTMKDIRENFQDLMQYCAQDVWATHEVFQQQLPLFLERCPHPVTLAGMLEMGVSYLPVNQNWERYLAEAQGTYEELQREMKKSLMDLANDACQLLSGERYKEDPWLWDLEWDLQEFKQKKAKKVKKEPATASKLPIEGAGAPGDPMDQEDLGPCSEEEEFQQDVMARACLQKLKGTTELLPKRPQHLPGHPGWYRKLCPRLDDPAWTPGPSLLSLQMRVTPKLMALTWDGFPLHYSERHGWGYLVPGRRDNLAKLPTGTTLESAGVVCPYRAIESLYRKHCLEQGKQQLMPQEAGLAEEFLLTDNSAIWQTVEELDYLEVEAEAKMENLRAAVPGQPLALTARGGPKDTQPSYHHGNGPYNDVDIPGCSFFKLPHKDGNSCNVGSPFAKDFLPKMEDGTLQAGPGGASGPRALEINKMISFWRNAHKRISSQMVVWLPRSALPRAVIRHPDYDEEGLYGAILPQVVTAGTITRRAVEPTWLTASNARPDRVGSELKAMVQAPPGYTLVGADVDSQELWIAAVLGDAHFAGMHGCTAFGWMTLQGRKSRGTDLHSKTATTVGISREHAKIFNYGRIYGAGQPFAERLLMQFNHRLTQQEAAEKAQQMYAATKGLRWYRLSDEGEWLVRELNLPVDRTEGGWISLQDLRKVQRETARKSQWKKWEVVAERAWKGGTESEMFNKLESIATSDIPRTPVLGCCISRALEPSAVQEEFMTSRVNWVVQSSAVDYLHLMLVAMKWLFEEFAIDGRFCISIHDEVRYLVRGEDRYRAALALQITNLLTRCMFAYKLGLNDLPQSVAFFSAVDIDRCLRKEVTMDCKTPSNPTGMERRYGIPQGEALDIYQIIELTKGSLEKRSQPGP
T1 sequence (Q9UHN1 1-485 partner): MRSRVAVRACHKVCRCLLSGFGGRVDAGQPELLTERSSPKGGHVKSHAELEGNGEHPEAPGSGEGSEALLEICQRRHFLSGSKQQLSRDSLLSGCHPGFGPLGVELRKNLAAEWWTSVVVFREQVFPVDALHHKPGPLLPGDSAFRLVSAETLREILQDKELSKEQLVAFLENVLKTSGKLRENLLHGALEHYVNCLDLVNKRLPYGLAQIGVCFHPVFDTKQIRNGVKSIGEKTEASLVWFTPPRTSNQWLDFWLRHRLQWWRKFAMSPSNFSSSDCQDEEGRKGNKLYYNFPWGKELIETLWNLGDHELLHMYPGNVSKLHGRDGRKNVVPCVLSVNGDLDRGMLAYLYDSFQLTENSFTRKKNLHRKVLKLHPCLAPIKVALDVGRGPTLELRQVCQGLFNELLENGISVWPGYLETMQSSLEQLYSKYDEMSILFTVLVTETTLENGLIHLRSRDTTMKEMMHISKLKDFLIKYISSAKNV
Experimental: DNA Polymerization Assay to Monitor Effects on Human Wildtype POLγ and Four Disease-Causing Mutant Variants of Human POLγ.
The ability of small molecules to stimulate the polymerase activity of POLγ was analyzed in a quantitative fluorescence SYBR Green I assay with fluorescence intensity (FI) readout.
In the presence of dNTPs, wild type human POLγ and mutant derivatives thereof were incubated with single-stranded, circular M13mp18 ssDNA hybridized to a short DNA oligonucleotide that functions as a primer for initiation of DNA synthesis. POLγ and mutant derivatives thereof will extend the primer and use the M13mp18 molecule as a template to synthesize long stretches of double-stranded DNA. SYBR Green I, which is a double-stranded DNA-binding dye, was used to quantify formation of double-stranded DNA in the reaction. When bound to double-stranded DNA, SYBR Green I fluorescence increases by up to 100-fold.
The assay was performed in the 384-well plate format. Upon addition of compounds, changes in double-stranded DNA synthesis activity can be monitored by following effects on fluorescent intensity.
The reactions also contained the accessory POLγB subunit, and the human mitochondrial single-stranded DNA binding protein (mtSSB).
The DNA template mixture used in the assay contained 0.5 nM primed M13 mp18 ssDNA, 400 nM mtSSB, 0.1 mM Tris-HCl (pH 8.0), 0.1 mM dNTP, 10 mM MgCl2, 0.1 mg/mL BSA, 1 mM TCEP solution, and 0.02% Triton X-100. The DNA template mixture for the wild type protein contained either 100 μM dNTP, 1 μM dNTP, or 0.1 μM dNTP, designated in Table 2 as 100 μM, 1 μM, and 0.1 μM, respectfully.
Microplates with compounds (0.1 μL in each well) to be tested in the assay were prepared from 10 mM compound stocks in 100% DMSO, and equal amounts of DMSO without any compound were added to positive and negative control wells.
The protein mixture was dispensed (5 μL into each well) into compound plates and incubated at 37° C. for 15 minutes. After incubation, 5 μL of the DNA template mixture was dispensed into each well. The plates were then incubated at 37° C. for 2 hours.
During incubation, a combined stop buffer and detection reagent solution was prepared. The buffer contained 25 mM EDTA (pH 8.0), 0.02% Triton X-100, and SYBR Green I [Invitrogen] diluted 10,000× (for fluorescent readout). EDTA will stop the enzymatic reaction by chelating magnesium ions.

AC50 [µM]	SMILES
2	Cc1cc(S(=O)(=O)Nc2csc(C3CCOCC3)n2)c(C)cc1Cl [Example 167, 4-chloro-2,5-dimethyl-N-(2-(tetrahydro-2H-pyran-4-yl)thiazol-4-yl)benzenesulfonamide]
> 10	Cc1cc(S(=O)(=O)Nc2csc(C(=O)N(CC(N)=O)C3CCCCC3)n2)c(C)cc1Cl [Example 179, N-(2-amino-2-oxoethyl)-4-((4-chloro-2,5-dimethylphenyl)sulfonamido)-N-cyclohexylthiazole-2-carboxamide]
7	CC[C@@H]1CCCN1C(=O)c1cccc(NS(=O)(=O)c2cc(C)c(Cl)cc2C)c1 [Example 65, (R)-4-chloro-N-(3-(2-ethylpyrrolidine-1-carbonyl)phenyl)-2,5-dimethylbenzenesulfonamide]
0.7	Cc1cc(S(=O)(=O)Nc2cc(-c3nccs3)ccc2F)c(C)cc1Cl [Example 61, 4-chloro-N-(2-fluoro-5-(thiazol-2-yl)phenyl)-2,5-dimethylbenzenesulfonamide]
